In PubChem BioAssay AID330 (DTP/NCI, 2004) one finds T/C data, which are given here for 17 molecules.

The experiment deals with P388 leukemia ip, CD2F1 mice, survival T/C. Kind of experiment: NCI In Vivo Anticancer Drug Screen. Data for tumor model P388 Leukemia (intraperitoneal) in CD2F1 (CDF1) mice. The following applies: endpoint: median survival time, higher = longer survival. In outline: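 Mice carrying the transplanted tumor received test compound or vehicle. Survival was recorded in each group, and the value is the treated-group measurement divided by that of the vehicle-treated control group.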

Setting [1] is: dose: 50.0 mg/kg/injection, schedule: Q01DX009 (ip), vehicle: Klucel (hydroxypropylcellulose) (HPC).
The mark [2] stands for this setting: dose: 60.0 mg/kg/injection, schedule: Q01DX005 (ip), vehicle: Klucel (hydroxypropylcellulose) (HPC).
The mark [3] stands for this setting: dose: 120.0 mg/kg/injection, schedule: Q01DX005 (ip), vehicle: Klucel (hydroxypropylcellulose) (HPC).
The mark [4] stands for this setting: dose: 240.0 mg/kg/injection, schedule: Q01DX005 (ip), vehicle: Klucel (hydroxypropylcellulose) (HPC).
Where [5] appears, read: dose: 50.0 mg/kg/injection, schedule: Q01DX005 (ip), vehicle: saline with Tween-80.
Where [6] appears, read: dose: 100.0 mg/kg/injection, schedule: Q01DX005 (ip), vehicle: saline with Tween-80.
Where [7] appears, read: dose: 200.0 mg/kg/injection, schedule: Q01DX005 (ip), vehicle: saline with Tween-80.

“And” between values parts separate entries of the source, which are not always exact repeats. Identical values can stand only once. Inconclusive results and toxic doses are left out.

As for `Nc1ccc(N)cc1`, the T/C is 95 % of control (dose: 5.0 mg/kg/injection, schedule: Q01DX009 (ip), vehicle: saline with Tween-80); 104 % of control (dose: 5.0 mg/kg/injection, schedule: Q04DX003 (ip), vehicle: saline with Tween-80); 100 % of control (dose: 10.0 mg/kg/injection, schedule: Q01DX009 (ip), vehicle: saline with Tween-80); 104 % of control (dose: 10.0 mg/kg/injection, schedule: Q04DX003 (ip), vehicle: saline with Tween-80); 100 % of control (dose: 20.0 mg/kg/injection, schedule: Q01DX009 (ip), vehicle: saline with Tween-80); 104 % of control (dose: 20.0 mg/kg/injection, schedule: Q04DX003 (ip), vehicle: saline with Tween-80).
Regarding `S=C1SCN(c2ccc3c(c2)OCO3)CN1c1ccc2c(c1)OCO2`, the T/C runs as follows: under setting [1], 96 % of control; (dose: 100.0 mg/kg/injection, schedule: Q01DX009 (ip), vehicle: Klucel (hydroxypropylcellulose) (HPC)) 100 % of control; (dose: 200.0 mg/kg/injection, schedule: Q01DX009 (ip), vehicle: Klucel (hydroxypropylcellulose) (HPC)) 96 % of control.
On to `COc1cccc(C2(O)CCCc3c(C)ccnc32)c1` (centres undefined), for which the T/C is 103 % of control under setting [2], 112 % of control under setting [3] and 115 % of control under setting [4].
Consider `CC(=O)c1c(-c2ccc(Cl)cc2)c(-c2ccc(Cl)cc2)nn(C(C)CO)c1=O` (centres undefined), for which the T/C by setting is: under setting [5], 103 % of control; under setting [6], 100 % of control; under setting [7], 97 % of control.
In the case of `CCCOc1cc2c(cc1C/C=C/c1ccccc1)OCO2`, the T/C is 94 % of control under setting [5], 100 % of control under setting [6] and 102 % of control under setting [7].
As to `CC(=O)CC(c1ccccc1)c1c(O)c2ccccc2oc1=O` (centres undefined), the T/C was 93 % of control and 96 % of control (dose: 0.02 mg/kg/injection, schedule: Q01DX009 (ip), vehicle: Klucel (hydroxypropylcellulose) (HPC)); 100 % of control (dose: 0.05 mg/kg/injection, schedule: Q01DX009 (ip), vehicle: Klucel (hydroxypropylcellulose) (HPC)); 99 % of control (dose: 0.05 mg/kg/injection, schedule: Q01DX009 (ip), vehicle: saline); 99 % of control (dose: 0.06 mg/kg/injection, schedule: Q01DX009 (ip), vehicle: other); 96 % of control and 97 % of control (dose: 0.1 mg/kg/injection, schedule: Q01DX009 (ip), vehicle: Klucel (hydroxypropylcellulose) (HPC)); 96 % of control (dose: 0.1 mg/kg/injection, schedule: Q01DX009 (ip), vehicle: saline). The T/C reads like this: (dose: 0.13 mg/kg/injection, schedule: Q01DX009 (ip), vehicle: other) 92 % of control; (dose: 0.2 mg/kg/injection, schedule: Q01DX009 (ip), vehicle: Klucel (hydroxypropylcellulose) (HPC)) 95 % of control and 96 % of control; (dose: 0.2 mg/kg/injection, schedule: Q01DX009 (ip), vehicle: saline) 109 % of control and 92 % of control; (dose: 0.25 mg/kg/injection, schedule: Q01DX009 (ip), vehicle: other) 95 % of control; (dose: 0.4 mg/kg/injection, schedule: Q01DX009 (ip), vehicle: Klucel (hydroxypropylcellulose) (HPC)) 91 % of control and 95 % of control; (dose: 0.4 mg/kg/injection, schedule: Q01DX009 (ip), vehicle: saline) 98 % of control and 90 % of control. In addition, the T/C is, setting by setting: (dose: 0.5 mg/kg/injection, schedule: Q01DX009 (ip), vehicle: saline with Tween-80) 97 % of control; (dose: 0.8 mg/kg/injection, schedule: Q01DX009 (ip), vehicle: saline) 101 % of control and 91 % of control; (dose: 1.0 mg/kg/injection, schedule: Q01DX001 (ip), vehicle: saline + alcohol) 101 % of control; (dose: 1.0 mg/kg/injection, schedule: Q01DX009 (ip), vehicle: saline with Tween-80) 93 % of control; (dose: 2.0 mg/kg/injection, schedule: Q01DX001 (ip), vehicle: saline + alcohol) 101 % of control; (dose: 4.0 mg/kg/injection, schedule: Q01DX001 (ip), vehicle: saline + alcohol) 95 % of control. Moreover, the T/C is 96 % of control (dose: 4.0 mg/kg/injection, schedule: Q04HX002 (ip), vehicle: saline with Tween-80); 99 % of control and 86 % of control (dose: 8.0 mg/kg/injection, schedule: Q04HX002 (ip), vehicle: saline with Tween-80); 106 % of control and 96 % of control (dose: 16.0 mg/kg/injection, schedule: Q04HX002 (ip), vehicle: saline with Tween-80).
For the molecule `O=S(=O)(c1ccc(Cl)cc1)N(Cl)Cl`, the T/C reads like this: (dose: 6.25 mg/kg/injection, schedule: Q01DX009 (ip), vehicle: Klucel (hydroxypropylcellulose) (HPC)) 107 % of control; (dose: 12.5 mg/kg/injection, schedule: Q01DX009 (ip), vehicle: Klucel (hydroxypropylcellulose) (HPC)) 100 % of control; (dose: 25.0 mg/kg/injection, schedule: Q01DX009 (ip), vehicle: Klucel (hydroxypropylcellulose) (HPC)) 101 % of control and 116 % of control; under setting [1], 105 % of control.
In the case of `NNC(=O)CCn1[nH]c(=O)c(Cl)c(Cl)c1=O`, the T/C is, setting by setting: under setting [5], 100 % of control; under setting [6], 100 % of control; under setting [7], 100 % of control.
For `Nc1cc(N)n(C2=NCCN2)n1`, the T/C is 104 % of control (dose: 60.0 mg/kg/injection, schedule: Q01DX005 (ip), vehicle: saline); 104 % of control (dose: 120.0 mg/kg/injection, schedule: Q01DX005 (ip), vehicle: saline); 98 % of control (dose: 240.0 mg/kg/injection, schedule: Q01DX005 (ip), vehicle: saline).
As to `Cc1cc2c(cc1C)NC1=C(N2)OC(c2c3ccccc3cc3ccccc23)C1=O` (centres undefined), the T/C was 92 % of control under setting [2], 88 % of control under setting [3] and 90 % of control under setting [4].
With `COc1ccc2sc(-c3ccccc3)cc(=O)c2c1`, the T/C reads like this: (dose: 50.0 mg/kg/injection, schedule: Q01DX005 (ip), vehicle: Klucel (hydroxypropylcellulose) (HPC)) 100 % of control; (dose: 100.0 mg/kg/injection, schedule: Q01DX005 (ip), vehicle: Klucel (hydroxypropylcellulose) (HPC)) 101 % of control; (dose: 200.0 mg/kg/injection, schedule: Q01DX005 (ip), vehicle: Klucel (hydroxypropylcellulose) (HPC)) 101 % of control.
Turning to `O=C(O)c1nccc2ccccc12`, the T/C was 103 % of control (dose: 12.5 mg/kg/injection, schedule: Q01DX009 (ip), vehicle: saline with Tween-80); 103 % of control (dose: 25.0 mg/kg/injection, schedule: Q01DX009 (ip), vehicle: saline with Tween-80); 105 % of control (dose: 50.0 mg/kg/injection, schedule: Q01DX009 (ip), vehicle: saline with Tween-80); 106 % of control (dose: 100.0 mg/kg/injection, schedule: Q01DX009 (ip), vehicle: saline with Tween-80).
On to `O=C(O)c1cccc(C(=O)O)c1S(=O)c1ccccc1` (centres undefined), for which the T/C (dose: 100.0 mg/kg/injection, schedule: Q04DX002 (ip), vehicle: other) is 102 % of control; the T/C (dose: 200.0 mg/kg/injection, schedule: Q04DX002 (ip), vehicle: other) was 103 % of control; the T/C (dose: 400.0 mg/kg/injection, schedule: Q04DX002 (ip), vehicle: other) is 94 % of control.
For the molecule `O=C(NCCCCN1CC1)C(=O)NCCCCN1CC1`, the T/C by setting is: (dose: 0.78 mg/kg/injection, schedule: Q04DX003 (ip), vehicle: Klucel (hydroxypropylcellulose) (HPC)) 120 % of control; (dose: 3.12 mg/kg/injection, schedule: Q04DX003 (ip), vehicle: Klucel (hydroxypropylcellulose) (HPC)) 162 % of control; (dose: 6.25 mg/kg/injection, schedule: Q04DX003 (ip), vehicle: Klucel (hydroxypropylcellulose) (HPC)) 178 % of control.
Regarding `COc1cccc2c1C(=O)c1c(O)c3c(c(O)c1C2=O)C[C@@](O)(C(C)=O)CC3OC1CC(NC(=O)CCN)C(O)C(C)O1` (some centres undefined), the T/C (dose: 6.25 mg/kg/injection, schedule: Q04DX003 (ip), vehicle: saline) was 97 % of control; the T/C (dose: 12.5 mg/kg/injection, schedule: Q04DX003 (ip), vehicle: saline) is 100 % of control; the T/C (dose: 25.0 mg/kg/injection, schedule: Q04DX003 (ip), vehicle: saline) is 103 % of control; the T/C (dose: 50.0 mg/kg/injection, schedule: Q04DX003 (ip), vehicle: saline) is 97 % of control.
In the case of `CCSc1n[nH]c(C2CCC(=O)N2Cc2ccccc2)n1` (centres undefined), the T/C runs as follows: under setting [5], 103 % of control; under setting [6], 104 % of control; under setting [7], 102 % of control.
In the case of `CC1(C)CCCC2(C)C1CCC1(C)OC(/C(C=O)=C/C=O)CC12` (centres undefined), the T/C is 112 % of control (dose: 40.0 mg/kg/injection, schedule: Q01DX009 (ip), vehicle: Klucel (hydroxypropylcellulose) (HPC)) and 105 % of control (dose: 80.0 mg/kg/injection, schedule: Q01DX009 (ip), vehicle: Klucel (hydroxypropylcellulose) (HPC)).
